Assay results: publication PMC5672024, “Selective Glucocorticoid Receptor Properties of GSK866 Analogs with Cysteine Reactive Warheads” (Frontiers in Immunology, 2017)

Key:
IL6 mRNA = assay: qPCR of TNF-inducible IL6 in HaCat cells; assay type: cell-based; settings: 6 h, 10, 100 or 1,000 nM, TNF 2,500 IU/ml last 4 h
Protocol: qPCR was performed using the GoTaq qPCR Master Mix (Promega) according to manufacturer’s instructions. In short, a 25 µl reaction volume mix per sample was prepared containing 12.5 µl GoTaq qPCR Master Mix, 0.4 µM forward and reverse primer, and nuclease-free water. We used the Rotor-Gene Q qPCR machine of Qiagen with following PCR program: 95°C for 2 min, 40 cycli denaturation (95°C, 15 s) and annealing/extension (60°C, 30 s), and dissociation (60–95°C). […] Each sample was run in triplicate. The median value of the triplicates were taken to calculate the deltaCt-values using GAPDH as the normalization gene.
(A) QPCR assays was performed against the GR target gene GILZ/TSC22D3 in HaCat cells treated for 6 h with different concentrations 10, 100 or 1,000 nM Dex or UAMC-1217. Bar graph plot represents the relative mRNA levels of GILZ/TSC22D3 upon Dex or UAMC-1217 treatment. (B) QPCR assays was performed against the TNF-inducible inflammatory gene interleukin-6 (IL6) in HaCat cells treated for 6 h with different concentrations 10, 100, or 1,000 nM Dex or UAMC-1217 either or not, cotreated for the last 4 h with TNF (2,500 IU/ml) as indicated in panel (B). […] Significant mean differences versus control setups panel (A) or TNF treated setup panel (B) are marked as *** (P < 0.001), **(P < 0.01), * (P < 0.05) and were determined by one-way ANOVA (Dunnetts Posttest).

[1] = test system: GR Ser211 phosphorylation; assay: Western blot of GR Ser211 phosphorylation; assay type: cell-based; settings: for concentration dependence of GR Ser211 phosphorylation: HaCat cells, 6 h, 10, 100 or 1,000 nM
Protocol: Whole cell extracts contain multiple protease inhibitors (Complete Mini®, Roche) and Halt phosphatase inhibitor cocktail (Thermoscientific). Soluble protein extracts were obtained after three times freeze and thaw cycles and centrifugation at […] for 15 min at 4°C. Samples were separated by sodium dodecyl sulfate-polyacrylamidegel electrophoresis (SDS-PAGE) and transferred onto nitrocellulose membranes (Hybond C, Amersham) following standard protocols. After blocking, membranes were incubated overnight at 4°C with the primary antibodies: anti-GR (sc-8992, SantaCruz Biotechnology), anti-phospho-GR Ser211 (4161, Cell Signalling) and anti-Actin (A3853, Sigma-Aldrich) followed by dye-conjugated secondary antibodies (LI-COR® Biosciences). Bound complexes were detected with the Odyssey® infrared imaging system (LI-COR®) and quantified by Image J software.
Figure 5 Selective glucocorticoid receptor agonist GSK866 and its analogs UAMC-1217, UAMC-1218 trigger glucocorticoid receptor (GR) Ser211 phosphorylation. (A) Western detection of expression levels of Actin, GR, and GR Ser S211 phosphorylation in HaCat cells following 6 h treatment with 1 µM Dex, UAMC-1217, UAMC-1218, or GSK866. (B) Bar plot representation of Western blot intensities of Actin, GR, and GR Ser S211 phosphorylation observed in panel A, as quantified by Image J. (C) Western detection of expression levels of Actin, GR expression, and Ser S211 phosphorylation in HaCat cells following 6 h treatment with, respectively, 10, 100, or 1,000 nM Dex or UAMC-1217. (D) Bar plot representation of Western blot intensities of Actin, GR, and GR Ser S211 phosphorylation observed in panel (C), as quantified by free Image J software.

GR = test system: GR; parameters: method as in PMID 27612544; settings: ref [14], cited from earlier work; for % inhibition of GR ligand binding: 1.5 nM [3H]-dexamethasone, 1 µM ligand
[2] = test system: TNF-induced NFκB reporter gene activity in L929sA cells; assay: p(NFκB)3-50luc reporter gene assay with TNF (NFκB transrepression); assay type: cell-based; settings: TNF 2,500 IU/ml; for inhibition at 0.01 µM: L929sA, 10 nM compound
Protocol: In order to compare transactivation and transrepression potencies of the different synthesized GSK866 analogs, we performed GRE- and NFκB-luciferase-dependent reporter gene studies in stable transfected cell lines, as previously described ([3], [8]). HaCat cells expressing p(GRE)2 50-Luc and L929sA cells expressing p(GRE)250-Luc or p(NFκB)350-Luc were cultured in DMEM medium with 1% L-glutamine, supplemented with 10% feral bovine serum (FBS), 100 µg/ml streptomycin, and 100 IU/mL penicillin in a humidified 5% CO2 atmosphere. Cells were passaged every 2 days at a dilution of 1:6. Reporter gene cells were plated at a density of 0.5 × 10^5 cells/well in 24 well plates and grown overnight. p(GRE)250-Luc-dependent reporter gene cells were treated with solvent (DMSO) or compound (100 fM, 1 nM, 10 nM, 100 nM, and 1 µM) for 6 h, whereas in case of p(NFκB)350-Luc, TNF (2,500 IU/mL) was added 2 h following compound treatment. After incubation with the compounds, medium was removed and cells were washed twice with PBS followed by adding 100 µl of 1× lysis buffer (0.2 M K2HPO4, 0.2 M KH2PO4, Triton X-100, pH 7.6). 25 µl of lysate was assayed for luciferase activity by adding 50 µl of luciferase assay substrate (1 mM luciferin or luciferin salt, 3 mM ATP, and 15 mM MgSO4 in 30 mM HEPES buffer, pH 7.8) followed by 10 s mixing and measuring 1 s bioluminescence using an Envision multilabel reader (Perkin Elmer).
Figure 3 Selective glucocorticoid receptor agonist GSK866 analogs UAMC-1217, UAMC-1218 but not UAMC-1158 and UAMC-1159 elicit selective glucocorticoid receptor-transactivation and NFκB-transrepression properties. Glucocorticoid response element (GRE)- and NFκB-luciferase-dependent reporter gene assays were performed in L929sA and HaCat reporter cells which were stably transfected with, respectively, p(NFκB)3-50luc or p(GRE)2-50-luc constructs. For p(GRE)2-50-luc reporter assays, cells were solvent-treated or induced with different concentrations of Dex (A), Dex-mesylate (Dex-Mes) (A), SEGRA GSK866 (C) or analogs UAMC-1158 (D), UAMC-1159 (E), UAMC-1217 (F), and UAMC-1218 (G) as indicated for a total exposure time of 6 h, whereas cells were cotreated for TNF (2,500 IU/ml) in the last 4 h for p(NFkB)3-50luc reporter assays (B–G). Corresponding lysates were assayed for luciferase activities and normalized for protein content as described in the Section “Materials and Methods.” Promoter activities are expressed as relative induction factor (± standard deviation) i.e., the ratio of expression levels recorded either at induced and non-induced conditions, with the latter taken to be 1.

Structure (SMILES) | TNF-induced IL6 gene expression (IL6 mRNA) | concentration dependence of GR Ser211 phosphorylation [1] | % inhibition of GR ligand binding (GR) | inhibition at 0.01 µM [2] | GR Ser211 phosphorylation ([1]; 1 µM, 6 h (UAMC-1158: Figure S2, 4 or 24 h)) | IC50 (GR; displacement of radiolabeled Dex, read-out: IC50 (GR radioligand binding)) | Ki (GR; displacement of radiolabeled Dex, read-out: Ki (GR radioligand binding)) | NFκB transrepression in NFκB-luc reporter ([2]; dose range)
C[C@@H]1C[C@H]2[C@@H]3CCC4=CC(=O)C=C[C@]4(C)[C@@]3(F)[C@@H](O)C[C@]2(C)[C@@]1(O)C(=O)CO [Dex, Dexamethasone, reference compound] | dose-dependently reverse TNF induced IL6 gene expression | concentration-dependent increase of GR Ser211 phosphorylation | 100% | 40 to 45% |  |  |  | 
CCN(C[C@@](O)(CNC(=O)c1cnn(-c2ccc(F)cc2)c1N)C(F)(F)F)C(=O)c1c(Cl)ccc(NC(=O)CCl)c1Cl [UAMC-1217] | dose-dependently reverse TNF induced IL6 gene expression | concentration-dependent increase of GR Ser211 phosphorylation | 92% | ~95% | enhance the Ser211 phosphorylation | 22 nM | 11 nM | dose-dependent NFκB-transrepression effects
